These are literature values, as cited in patent US11472851B2, “Recombinant bacillus subtilis and application thereof” (priority 2019, dated 2022).

In the case of “Sublancin (GLGKAQCAALWLQCASGGTIGCGGGAVACQNYRQFCR; Sublancin)”, in the data set on macrophages, the phagocytosis of macrophages entry is on record as “enhance the phagocytosis of macrophages”. In the data set with poultry, the “immune function of poultry” value is listed as “enhance the immune function of poultry”.
